From ChEMBL document CHEMBL4831516, “Development of Membrane-Active Honokiol/Magnolol Amphiphiles as Potent Antibacterial Agents against Methicillin-Resistant Staphylococcus aureus (MRSA)” (J Med Chem, 2021)

How the values were obtained:
Staphylococcus aureus [1] = test: Antibacterial activity against methicillin-resistant Staphylococcus aureus clinical isolate M-18 assessed as inhibition of visible growth incubated for 16 to 18 hrs by CLSI method; assay type: functional; conditions: time 16-18 hrs, read-out: MIC100
Staphylococcus aureus [2] = test: Antibacterial activity against methicillin-resistant Staphylococcus aureus clinical isolate M-17 assessed as inhibition of visible growth incubated for 16 to 18 hrs by CLSI method; assay type: functional; conditions: time 16-18 hrs, read-out: MIC100
Staphylococcus aureus [3] = test: Antibacterial activity against methicillin-resistant Staphylococcus aureus clinical isolate M-14 assessed as inhibition of visible growth incubated for 16 to 18 hrs by CLSI method; assay type: functional; conditions: time 16-18 hrs, read-out: MIC100
Micrococcus luteus = test: Antibacterial activity against Micrococcus luteus assessed as inhibition of visible growth incubated for 16 to 18 hrs by CLSI method; assay type: functional; conditions: time 16-18 hrs, read-out: MIC100
[4] = Hemolytic activity in sheep RBC assessed as hemolysis incubated for 1 hr; assay type: ADME, cell-based, Ovis aries, Erythrocyte; conditions: sheep red blood cells (erythrocytes)
[5] = test system: Stenotrophomonas maltophilia; test: Antibacterial activity against Stenotrophomonas maltophilia assessed as inhibition of visible growth incubated for 16 to 18 hrs by CLSI method; assay type: functional; conditions: time 16-18 hrs, read-out: MIC100
Staphylococcus aureus [6] = test: Antibacterial activity against methicillin-resistant Staphylococcus aureus clinical isolate M-13 assessed as inhibition of visible growth incubated for 16 to 18 hrs by CLSI method; assay type: functional; conditions: time 16-18 hrs, read-out: MIC100
Bacillus subtilis = test: Antibacterial activity against Bacillus subtilis assessed as inhibition of visible growth incubated for 16 to 18 hrs by CLSI method; assay type: functional; conditions: time 16-18 hrs, read-out: MIC100
Staphylococcus aureus [7] = test: Antibacterial activity against methicillin-resistant Staphylococcus aureus clinical isolate M-16 assessed as inhibition of visible growth incubated for 16 to 18 hrs by CLSI method; assay type: functional; conditions: time 16-18 hrs, read-out: MIC100
Staphylococcus aureus [8] = test: Antibacterial activity against Staphylococcus aureus ATCC29213 assessed as inhibition of visible growth incubated for 16 to 18 hrs by CLSI method; assay type: functional; conditions: time 16-18 hrs, read-out: MIC100
Salmonella enterica [9] = test: Antibacterial activity against Salmonella enterica 8389 assessed as inhibition of visible growth incubated for 16 to 18 hrs by CLSI method; assay type: functional; conditions: time 16-18 hrs, read-out: MIC100
Staphylococcus aureus [10] = test: Antibacterial activity against methicillin-resistant Staphylococcus aureus clinical isolate M-11 assessed as inhibition of visible growth incubated for 16 to 18 hrs by CLSI method; assay type: functional; conditions: time 16-18 hrs, read-out: MIC100
[11] = Selectivity index, HC50 for hemolytic activity in sheep RBC to MIC for antibacterial activity against Staphylococcus aureus ATCC29213; assay type: toxicity; conditions: sheep red blood cells (erythrocytes), read-out: Selectivity Index
Escherichia coli = test: Antibacterial activity against Escherichia coli ATCC25922 assessed as inhibition of visible growth incubated for 16 to 18 hrs by CLSI method; assay type: functional; conditions: time 16-18 hrs, read-out: MIC100
Staphylococcus aureus [12] = test: Antibacterial activity against methicillin-resistant Staphylococcus aureus clinical isolate M-12 assessed as inhibition of visible growth incubated for 16 to 18 hrs by CLSI method; assay type: functional; conditions: time 16-18 hrs, read-out: MIC100
Staphylococcus aureus [13] = test: Antibacterial activity against methicillin-resistant Staphylococcus aureus clinical isolate M-19 assessed as inhibition of visible growth incubated for 16 to 18 hrs by CLSI method; assay type: functional; conditions: time 16-18 hrs, read-out: MIC100
Enterococcus faecalis = test: Antibacterial activity against Enterococcus faecalis ATCC29212 assessed as inhibition of visible growth incubated for 16 to 18 hrs by CLSI method; assay type: functional; conditions: time 16-18 hrs, read-out: MIC100
Staphylococcus aureus [14] = test: Antibacterial activity against methicillin-resistant Staphylococcus aureus clinical isolate M-15 assessed as inhibition of visible growth incubated for 16 to 18 hrs by CLSI method; assay type: functional; conditions: time 16-18 hrs, read-out: MIC100
Salmonella enterica [15] = test: Antibacterial activity against Salmonella enterica 349812 assessed as inhibition of visible growth incubated for 16 to 18 hrs by CLSI method; assay type: functional; conditions: time 16-18 hrs, read-out: MIC100
Staphylococcus aureus [16] = test: Antibacterial activity against methicillin-resistant Staphylococcus aureus clinical isolate M-20 assessed as inhibition of visible growth incubated for 16 to 18 hrs by CLSI method; assay type: functional; conditions: time 16-18 hrs, read-out: MIC100

Structure (SMILES) | MIC (Staphylococcus aureus [1]) [µg/mL] | MIC (Staphylococcus aureus [2]) [µg/mL] | MIC (Staphylococcus aureus [3]) [µg/mL] | MIC (Micrococcus luteus) [µg/mL] | HC50 at 1 h [4] [µg/mL] | MIC [5] [µg/mL] | MIC (Staphylococcus aureus [6]) [µg/mL] | MIC (Bacillus subtilis) [µg/mL] | MIC (Staphylococcus aureus [7]) [µg/mL] | MIC (Staphylococcus aureus [8]) [µg/mL] | MIC (Salmonella enterica [9]) [µg/mL] | MIC (Staphylococcus aureus [10]) [µg/mL] | selectivity ratio [11] | MIC (Escherichia coli) [µg/mL] | MIC (Staphylococcus aureus [12]) [µg/mL] | MIC (Staphylococcus aureus [13]) [µg/mL] | MIC (Enterococcus faecalis) [µg/mL] | MIC (Staphylococcus aureus [14]) [µg/mL] | MIC (Salmonella enterica [15]) [µg/mL] | MIC (Staphylococcus aureus [16]) [µg/mL]
C=CCc1ccc(OCCCC[N+](C)(C)CC(=O)NCCC)c(-c2ccc(OCCCC[N+](C)(C)CC(=O)NCCC)c(CC=C)c2)c1.[Br-].[Br-] | 8 | 8 | 4 | 2 | 644 | 8 | 4 | 2 | 4 | 2 | 8 | 4 | 322 | 8 | 4 | 8 | 2 | 4 | 8 | 8
C=CCc1ccc(O)c(-c2cc(CC=C)ccc2OCCC[N+](C)(C)CC(=O)NCCCCC)c1.[Br-] | 2 | 2 | 2 | 1 | 678 | 16 | 4 | 1 | 2 | 2 | 16 | 8 | 339 | 8 | 2 | 2 | 4 | 2 | 32 | 2
C=CCc1ccc(O)c(-c2cc(CC=C)ccc2OCCC[N+](C)(C)CC(=O)NCCCC)c1.[Br-] | 4 | 4 | 4 | 1 | 596 | 32 | 4 | 1 | 4 | 2 | 32 | 8 | 298 | 8 | 4 | 4 | 4 | 4 | 32 | 4
C=CCc1ccc(OCCC[N+](C)(C)CC(=O)NCC)c(-c2ccc(OCCC[N+](C)(C)CC(=O)NCC)c(CC=C)c2)c1.[Br-].[Br-] | 4 | 4 | 9 | 4 | 1130 | 32 | 4 | 4 | 2 | 2 | 32 | 8 | 567 | 16 | 4 | 4 | 4 | 4 | 64 | 4
C=CCc1ccc(O)c(-c2cc(CC=C)ccc2OCCCC[N+](C)(C)CC(=O)NCCCCC)c1.[Br-] | 4 | 4 | 4 | 4 | 643 | 32 | 4 | 2 | 4 | 2 | 32 | 4 | 322 | 8 | 4 | 4 | 8 | 4 | 32 | 4
C=CCc1ccc(OCC[N+](C)(C)CC(=O)NCC)c(-c2ccc(OCC[N+](C)(C)CC(=O)NCC)c(CC=C)c2)c1.[Br-].[Br-] | 4 | 4 | 4 | 4 | 639 | 32 | 8 | 4 | 4 | 8 | 64 | 8 | 79.9 | 32 | 8 | 4 | 8 | 4 | 32 | 4
C=CCc1ccc(O)c(-c2cc(CC=C)ccc2OCCC[N+](C)(C)CC(=O)N(CCCC)CCCC)c1.[Br-] | 2 | 2 | 4 | 0.5 | 764 | 8 | 2 | 0.5 | 2 | 2 | 16 | 4 | 382 | 8 | 4 | 1 | 2 | 2 | 8 | 2
C=CCc1ccc(OCC[N+](C)(C)CC(=O)NCCCC)c(-c2ccc(OCC[N+](C)(C)CC(=O)NCCCC)c(CC=C)c2)c1.[Br-].[Br-] | 4 | 8 | 4 | 4 | 832 | 32 | 4 | 2 | 8 | 4 | 32 | 4 | 208 | 64 | 4 | 4 | 8 | 8 | 64 | 8
C=CCc1ccc(OCCCC[N+](C)(C)CC(=O)NCC)c(-c2ccc(OCCCC[N+](C)(C)CC(=O)NCC)c(CC=C)c2)c1.[Br-].[Br-] | 8 | 8 | 8 | 8 | 883 | 8 | 8 | 4 | 16 | 2 | 32 | 16 | 442 | 4 | 8 | 8 | 2 | 8 | 8 | 8
C=CCc1ccc(OCCC[N+](C)(C)CC(=O)NCCCCC)c(-c2ccc(OCCC[N+](C)(C)CC(=O)NCCCCC)c(CC=C)c2)c1.[Br-].[Br-] | 2 | 2 | 4 | 4 | 1090 | 16 | 4 | 8 | 2 | 2 | 8 | 4 | 546 | 16 | 2 | 2 | 4 | 2 | 8 | 4
C=CCc1ccc(OCCCC[N+](C)(C)CC(=O)NCCCCCC)c(-c2ccc(OCCCC[N+](C)(C)CC(=O)NCCCCCC)c(CC=C)c2)c1.[Br-].[Br-] | 4 | 4 | 8 | 2 | 573 | 8 | 2 | 4 | 8 | 4 | 8 | 2 | 143 | 16 | 2 | 4 | 2 | 8 | 16 | 4
C=CCc1ccc(OCC[N+](C)(C)CC(=O)NCCC)c(-c2ccc(OCC[N+](C)(C)CC(=O)NCCC)c(CC=C)c2)c1.[Br-].[Br-] | 8 | 4 | 8 | 16 | 703 | 64 | 8 | 16 | 4 | 16 | 64 | 8 | 43.9 | 64 | 8 | 8 | 8 | 4 | 64 | 8
C=CCc1ccc(OCCC[N+](C)(C)CC(=O)N(CCCC)CCCC)c(-c2ccc(OCCC[N+](C)(C)CC(=O)N(CCCC)CCCC)c(CC=C)c2)c1.[Br-].[Br-] | 8 | 8 | 8 | 1 | 1080 | 4 | 8 | 2 | 8 | 4 | 8 | 8 | 270 | 4 | 8 | 8 | 2 | 8 | 16 | 8
